Consider 6 compounds from patent publication US20090317496A1, “Method for Preventing and Treating the Disease Caused by Vascular Damage and the Use Thereof” (priority 2005, published 2009).

Molecules are shown by their SMILES.

Test [1] deals with vascular endothelial cells (HUVEC). The test can be described thus: MTT assay, Rk1 on apoptosis of vascular endothelial cell caused by the lack of serum. The test is classed as cell-based, human. To be noted: FBS free medium, Rk1 0, 0.5, 1, 5, 10 μg/ml, 24 hours; FIG. 4. Here is the method:
FIG. 4 is the result of MTT assay showing suppressive effect of Rk1 on the apoptosis of HUVEC in medium,
Vascular endothelial cell were spread on 24-well plates (3×10^4 cells/well) and were incubated for 24 hours. The mediums were substituted with new medium containing 20% (w/v) FBS and FBS free medium respectively. The FBS free medium was treated with various concentrations of Rk1, i.e., 0, 0.5, 1, 5, 10 μg/m ? and incubated for 24 hours. After the incubation, MTT assay was performed.
Background: Formazan colour is commonly taken as a measure of viable cells.

Test [2] concerns HUVEC (human umbilical venous endothelial cell). The test can be described thus: MTT assay, apoptosis of HUVEC caused by the lack of serum. Type of test: cell-based. The settings on record: FBS free medium, 10 μg/ml, 24 hours; FIG. 3c. Here is the method:
(§1) The HUVEC (human umbilical venous endothelial cell) and retinal vascular endothelial cell (cell-systems, USA) were incubated at M199 medium containing 20% (w/v) FBS (HyClone, Canada), 100 units/m ? of penicillin (Invitrogen, USA), 100 μg/m ? of streptomycin (Invitrogen, USA), 3 ng/m ? of bFGF (basic fibroblast growth factor, Upstate Biotechnology, USA) and 5 units/m ? of heparin (Life Technologies, USA) under 5% CO2 gas condition at 37° C. (See FIG. 2a and FIG. 2b).
(§2) To investigate the suppression effect of SG was determined by (3-[4,5-dimethylthiazol-2-yl]-2,5-diphenyl tetrazolium bromide (MTT) assay method disclosed in the literature (Wang Z et al., Biol., Pharm. Bull., 24, pp 159-162, 2001).
(§3) HUVEC and retinal vascular endothelial cell were spread on 24-well plates (3×10^4 cells/well) and were incubated for 24 hours. The mediums were substituted with new medium containing 20% (w/v) FBS and FBS free medium respectively. The FBS free medium was treated with various concentrations of SG, i.e., 0, 1, 5, 10, 20 μg/m ? . The medium was incubated for 24 hours. After the incubation, MTT assay was performed.
(§4) To investigate the suppressive effect of SG, Rb1, Rg1, Re, Rg3, Rg5 and Rk1 on the cell apoptosis if retinal vascular endothelial cell caused by the lack of serum, the effect were determined by (3-[4,5-dimethylthiazol-2-yl]-2,5-diphenyl tetrazolium bromide (MTT) assay method disclosed in the literature (Wang Z et al., Biol., Pharm. Bull., 24, pp 159-162, 2001).
(§5) HUVEC and retinal vascular endothelial cell were spread on 24-well plates (3×10^4 cells/well) and were incubated for 24 hours respectively. The mediums were substituted with new medium containing 20% (w/v) FBS and FBS free medium respectively. The FBS free medium was treated with 10 μg/m ? of SG, Rb1, Rg1, Re, Rg3, Rg5 and Rk1 and the medium was incubated for 24 hours. After the incubation, MTT assay was performed.

The subject of test [3] is retinal vessel of C57/BL6 mice. The test can be described thus: Angiography with FITC-dextran, permeability of retinal vessel. The test is classed as in vivo. To be noted: FIG. 11. As to the method:
Both of 100 ng of VEGF and 30 μg of Rk1 were injected into the retina of C57/BL6 mice (Orient, Korea). After 24 hours, the mice were anesthetized and FITC-dextran was injected into the heart to allow fluorescent material to flow in blood. […] In the only VEGF-injected mice, it has been confirmed that the fluorescent material was exuded from neighboring tissues around blood vessel caused by the increased permeability of retinal vessel however the exudation in VEGF was recovered by the treatment of Rk1.
Likewise, it has been also confirmed that the fluorescent material was exuded from neighboring tissues around blood vessel caused by the increased permeability of retinal vessel in diabetes induced mice however the exudation was recovered by the treatment of Rk1.

The subject of test [4] is vascular endothelial cells (HUVEC). The test can be described thus: DAPI staining, DNA fragmentation of vascular endothelial cell caused by the lack of serum. The settings on record: FBS free medium, Rk1 0, 0.5, 1, 5, 10 μg/ml, 24 hours; FIG. 5. The test is classed as cell-based, human. Here is the method:
FIG. 5 is the result of staining with DAPI showing suppressive effect of Rk1 on the apoptosis of HUVEC in medium,
Vascular endothelial cell were spread on 35 mm dish (1.5×10^5 cells/well) and were incubated for 24 hours. The mediums were substituted with new medium containing 20% (w/v) FBS and FBS free medium respectively. The FBS free medium was treated with various concentrations of Rk1, i.e., 0, 0.5, 1, 5, 10 μg/m ? and incubated for 24 hours. After the incubation, the medium was washed with PBS solution 2 times, fixed with 2% of paraformaldehyde and washed with PBS solution 2 times again. DAPI (4′,6-Diamidino-2-phenylindole-2-HCl. Calbiochem, USA) solution was added thereto, incubated for 30 minutes in darkroom and washed with PBS two times. The DNA fragmentation was measured by fluorescent microscope (Fluorescent microscope, Axioplan2, ZEISS, Germany) after mounting with cover slip.

For test [5], the system named is retinal vascular endothelial cell. The test can be described thus: MTT assay, apoptosis of retinal vascular endothelial cell caused by the lack of serum. Type of test: cell-based, human. To be noted: FBS free medium, 10 μg/ml, 24 hours; FIG. 3c. Here is the method:
as §1, §2, §3, §4, §5

Test [6] has as its system tight junction protein ZO-1, ZO-2 and occludin. Put plainly: Immunocytochemistry of tight junction proteins in human retinal vascular endothelial cells. The test is classed as cell-based. The settings on record: human retinal endothelial cell. As to the method: Human retinal vascular endothelial cell were spread on 35 mm dish (2×10^5 cells/well) and were incubated for 24 hours. The cells were transferred to human endothelial SFM-basal growth medium (Invitrogen, USA), incubated for 24 hours and transferred to new human endothelial SFM-basal growth medium again. The medium was treated with 20 ng/m ? of VEGF (vascular endothelial growth factor) and Rk1, and incubated for 6 hours. After the incubation, the medium was washed with PBS solution and immunocytochemistry analysis was performed to determine the change of tight junction protein.

Test [7] deals with tight junction proteins ZO-1, ZO-2 and occludin. Put plainly: Western blot of tight junction proteins in mouse retina. The test is classed as in vivo, C57/BL6 mice. The settings on record: FIG. 6b. For orientation: In western blotting, separated proteins are transferred to a membrane and probed.
Test [8] shares this test system. The test can be described thus: Western blot of tight junction proteins in human retinal vascular endothelial cells. The test is classed as cell-based. The settings on record: human retinal endothelial cell, FIG. 6a. As to the method:
Human retinal vascular endothelial cell were spread on 60 mm dish (3×10^5 cells/well) and were incubated for 24 hours.
The cells were transferred to human endothelial SFM-basal growth medium (Invitrogen, USA), incubated for 24 hours and transferred to new human endothelial SFM-basal growth medium again. The medium was treated with 20 ng/m ? of VEGF (vascular endothelial growth factor) and Rk1, and incubated for 6 hours. After the incubation, the cells were collected to induce lysis and western blot analysis was performed.

Test [9] concerns tight junction protein ZO-1, ZO-2 and occludin. Put plainly: Immunocytochemistry of tight junction proteins in mouse retina. Type of test: in vivo, C57/BL6 mice.

For `C=C(CCC=C(C)C)[C@H]1CC[C@]2(C)[C@@H]1[C@H](O)C[C@@H]1[C@@]3(C)CC[C@H](O[C@@H]4O[C@H](CO)[C@@H](O)[C@H](O)[C@H]4O[C@@H]4O[C@H](CO)[C@@H](O)[C@H](O)[C@H]4O)C(C)(C)[C@@H]3CC[C@]12C` [Rk1, ginsenoside Rk1], the “apoptosis and cell viability of vascular endothelial cells (MTT assay)” value in test [1] is reported as “inhibited the apoptosis”. Moreover, in test [2], the “apoptosis and cell viability of HUVEC (MTT assay)” value is reported as “inhibited the apoptosis”. The “exudation of fluorescent material (increased permeability of retinal vessel), angiography” value in test [3] (VEGF 100 ng and 30 μg Rk1 injected into the retina, 24 hours, mouse) is “recovered”; in test [3] (diabetes induced mice), “recovered”. Further, in test [4], the “DNA fragmentation of vascular endothelial cells (DAPI)” value is recorded as “suppressed the DNA fragmentation”. The “apoptosis and cell viability of retinal vascular endothelial cells (MTT assay)” value in test [5] was “inhibited the apoptosis”. The “recovering effect on the decrease of tight junction protein ZO-1, ZO-2 and occludin (immunocytochemistry)” value in test [6] (decrease caused by AGE, FIG. 7) was “potent recovering effect”; in test [6] (decrease caused by VEGF 20 ng/ml, 6 hours, FIG. 8) it was “potent recovering effect”; in test [9] (decrease caused by VEGF 100 ng, 30 μg Rk1 injected into the retina, 24 hours, mouse, FIG. 9), “potent recovering effect”; in test [9] (decrease caused by diabetes, mouse retina, FIG. 10), “potent recovering effect”. The “recovering effect on the decrease of tight junction proteins ZO-1, ZO-2 and occludin (western blot)” value was “potent recovering effect” in [7] (decrease caused by VEGF 100 ng, 30 μg Rk1 injected into the retina, 24 hours, mouse); “potent recovering effect” in test [7] (decrease caused by diabetes, mouse retina); “potent recovering effect” in test [8] (decrease caused by AGE (advanced glycation end product)); “potent recovering effect” in [8] (decrease caused by VEGF 20 ng/ml, 6 hours).

Turning to `CC(C)=CCC[C@](C)(O[C@@H]1O[C@H](CO[C@@H]2O[C@H](CO)[C@@H](O)[C@H](O)[C@H]2O)[C@@H](O)[C@H](O)[C@H]1O)[C@H]1CC[C@]2(C)[C@@H]1[C@H](O)C[C@@H]1[C@@]3(C)CC[C@H](O[C@@H]4O[C@H](CO)[C@@H](O)[C@H](O)[C@H]4O[C@@H]4O[C@H](CO)[C@@H](O)[C@H](O)[C@H]4O)C(C)(C)[C@@H]3CC[C@]12C` [Rb1, ginsenoside Rb1, reference compound], the “apoptosis and cell viability of retinal vascular endothelial cells (MTT assay)” value in test [5] is recorded as “did not”.

`CC(C)=CCC[C@](C)(O)[C@H]1CC[C@]2(C)[C@@H]1[C@H](O)C[C@@H]1[C@@]3(C)CC[C@H](O[C@@H]4O[C@H](CO)[C@@H](O)[C@H](O)[C@H]4O[C@@H]4O[C@H](CO)[C@@H](O)[C@H](O)[C@H]4O)C(C)(C)[C@@H]3CC[C@]12C` [Rg3, ginsenoside Rg3]: the “apoptosis and cell viability of HUVEC (MTT assay)” value in [2] is given as “inhibited the apoptosis”. In [5], the “apoptosis and cell viability of retinal vascular endothelial cells (MTT assay)” value is reported as “inhibited the apoptosis”.

As to `CC(C)=CCC[C@](C)(O[C@@H]1O[C@H](CO)[C@@H](O)[C@H](O)[C@H]1O)[C@H]1CC[C@]2(C)[C@@H]1[C@H](O)C[C@@H]1[C@@]3(C)CC[C@H](O)C(C)(C)[C@@H]3[C@@H](O[C@@H]3O[C@H](CO)[C@@H](O)[C@H](O)[C@H]3O)C[C@]12C` [Rg1, ginsenoside Rg1, reference compound], the “apoptosis and cell viability of retinal vascular endothelial cells (MTT assay)” value in test [5] was “did not”.

On to `CC(C)=CC/C=C(\C)[C@H]1CC[C@]2(C)[C@@H]1[C@H](O)C[C@@H]1[C@@]3(C)CC[C@H](O[C@@H]4O[C@H](CO)[C@@H](O)[C@H](O)[C@H]4O[C@@H]4O[C@H](CO)[C@@H](O)[C@H](O)[C@H]4O)C(C)(C)[C@@H]3CC[C@]12C` [Rg5, ginsenoside Rg5], for which, in [2], the “apoptosis and cell viability of HUVEC (MTT assay)” value was “inhibited the apoptosis”. In addition, the “apoptosis and cell viability of retinal vascular endothelial cells (MTT assay)” value in test [5] is reported as “inhibited the apoptosis”.

With `CC(C)=CCC[C@](C)(O[C@@H]1O[C@H](CO)[C@@H](O)[C@H](O)[C@H]1O)[C@H]1CC[C@]2(C)[C@@H]1[C@H](O)C[C@@H]1[C@@]3(C)CC[C@H](O)C(C)(C)[C@@H]3[C@@H](O[C@@H]3O[C@H](CO)[C@@H](O)[C@H](O)[C@H]3O[C@@H]3O[C@@H](C)[C@H](O)[C@@H](O)[C@H]3O)C[C@]12C` [Re, ginsenoside Re, reference compound], the “apoptosis and cell viability of retinal vascular endothelial cells (MTT assay)” value in test [5] is on record as “did not”.
